This note sets out measurements from PubChem BioAssay (NCI).

Common to all, as to test: NCI tumour cell line growth inhibition, 48 h
The subject of experiment [1] is DU-145 prostate.
Experiment [2] concerns HT29 colon.
For experiment [3], the system named is NCI-H23 lung.
For experiment [4], the system named is NCI/ADR-RES ovarian.
For experiment [5], the system named is OVCAR-3 ovarian.
The test system of experiment [6] is OVCAR-8 ovarian.
In experiment [7] the test system is SF-539 CNS.
Experiment [8] has as its system SNB-19 CNS.
For experiment [9], the system named is CCRF-CEM leukemia.
For experiment [10], the system named is HOP-62 NSCLC.

Structures are written as SMILES. “And” between values parts separate entries of the source, which are not always exact repeats. Identical values can stand only once.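 Exposure lasted 48 hours, with cells grown in 96-well plates and compounds tested at five concentrations. GI50 is the concentration that inhibits growth by half. TGI: concentration producing complete growth inhibition.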

For `NC(=O)c1csc(-c2ccc(CO)o2)n1`, the TGI in experiment [1], in experiment [2], in [3], in experiment [4], in experiment [5] and in experiment [6] was greater than 100 µM each time. Also, the TGI in experiment [7] and in experiment [8] was greater than 100 µM throughout.

For the compound `COc1cc(CC(=O)O)c([N+](=O)[O-])cc1OC`, the TGI in experiment [9], in experiment [10], in experiment [2], in experiment [3], in [5] and in experiment [6] was greater than 100 µM in each case. Also, the TGI in experiment [7] and in experiment [8] was greater than 100 µM each time.

Regarding `Cc1ccc(NC(=O)CC2SC(=Nc3ccc(Cl)cc3)NC2=O)cc1C` (configuration not stated), the TGI in [9] was 11 µM; in experiment [10], greater than 100 µM; in [2] it was 33.2 µM; in experiment [3], 35.6 µM; in experiment [5], 33.2 µM; in [6], 32.8 µM. Also, the TGI in experiment [7] is 35.4 µM; in [8] it was greater than 100 µM.

In the case of `CC[As](CC)SCC1OC(OC(C)=O)C(OC(C)=O)C(OC(C)=O)C1OC(C)=O` (configuration not stated), the TGI worked out at 18.4 µM in experiment [9]; 38.3 µM in [10]; 54 µM in [2]; 36.4 µM in [3]; 27.6 µM in experiment [5]; 31.9 µM in experiment [6]. Also, the TGI in [7] was determined as 27.4 µM; in experiment [8] it was 33.5 µM.

Consider `CN1C2(c3ccccc3)C(C(=O)c3ccccc3)=C(C(=O)c3ccccc3)C1(c1ccccc1)c1c(-c3ccccc3)sc(-c3ccccc3)c12`, for which the TGI in experiment [9], in experiment [10], in [2], in experiment [3], in [5] and in experiment [6] was greater than 100 µM in each case. Also, the TGI in experiment [7] and in experiment [8] was greater than 100 µM throughout.

For the compound `O=C(Cc1nc2ccccc2o1)C(=O)Nc1ccc(Cl)cc1Cl`, the TGI in experiment [10], in experiment [2], in [3], in experiment [5], in experiment [6] and in experiment [7] was greater than 100 µM throughout. Besides, the TGI in [8] is greater than 100 µM.

For `O=C(CC(=O)c1cccc([N+](=O)[O-])c1)C(=O)Nc1ccccc1`, the TGI in experiment [9], in [10], in experiment [2], in experiment [3], in experiment [5] and in [6] was greater than 100 µM each time. Further, the TGI in experiment [7] and in experiment [8] was greater than 100 µM throughout.

As for `CN(C)c1ccc(/C=c2/c3cc(O)ccc3n3c2cc(-c2ccccc2)[n+]3C)cc1`, the TGI in experiment [9] is 4.1 µM; in experiment [1], 6.07 µM; in [10], 4.37 µM; in experiment [2], 3.86 µM; in experiment [3] it was 4.64 µM; in experiment [4], greater than 100 µM. Moreover, the TGI in experiment [6] was 2.03 µM; in experiment [8], 1.7 µM and 1.47 µM. For the same compound, the GI50 in experiment [8] is 0.277 µM.

`[CH3][Hg]/[N]=C(/N)NC#N`: the GI50 in [9] was 3.65 µM; in [10] it was 19.4 µM; in experiment [2], 19.9 µM; in [3], 10.2 µM; in experiment [5], 2.74 µM; in [6], 3.63 µM. Also, the GI50 in experiment [7] was 17.7 µM. In addition, the TGI was greater than 100 µM in [9]; 36.6 µM in experiment [10]; 50.8 µM in experiment [2]; 24.5 µM in experiment [3]; 8.6 µM in experiment [5]; 16.1 µM in experiment [6]. Moreover, the TGI in [7] turned out to be 32.4 µM.

In the case of `CC1(C)C(CC(=O)O)CCCC1CC(=O)O` (configuration not stated), the TGI in experiment [9], in [1], in experiment [10], in experiment [2], in experiment [3] and in experiment [4] was greater than 100 µM throughout. Besides, the TGI in [5], in experiment [6] and in experiment [8] was greater than 100 µM each time.

As to `Cc1cc(C)nc(NS(=O)(=O)c2ccc(NC(=O)COC(=O)c3cccc4c(=O)c5ccccc5[nH]c34)cc2)n1`, the TGI is 87.7 µM in experiment [9]; 47.4 µM in [10]; greater than 100 µM in experiment [2]; greater than 100 µM in [3]; 51.4 µM in [5]; greater than 100 µM in [6]. Also, the values for the TGI in experiment [7] and in experiment [8] were 34 µM and 77.2 µM, respectively.

As for `Cc1cc(C)c(/C=N/NS(=O)(=O)c2ccccc2)c(C)c1`, the TGI in experiment [9], in experiment [10], in experiment [2], in experiment [3], in experiment [5] and in [6] was greater than 100 µM throughout. In experiment [7], this compound had a TGI greater than 100 µM.

Consider `COc1ccc([C@@H]2OC(=O)C3C2C(=O)O[C@H]3c2ccc(OC)cc2)cc1` (some centres not stated), for which the TGI in [9], in experiment [10], in experiment [2], in experiment [3], in [5] and in [6] was greater than 100 µM in each case. Moreover, the TGI in experiment [7] and in [8] was greater than 100 µM each time.

With `CC1C(O)=C(O)c2ccccc2N1O` (configuration not stated), the TGI in [9], in experiment [10], in experiment [2], in [3], in [5] and in experiment [6] was greater than 100 µM in each case. Also, the TGI in experiment [7] and in experiment [8] was greater than 100 µM throughout.

For the compound `O=C(O)CCC1c2[nH]c3ccccc3c2CCN1Cc1ccccc1` (configuration not stated), the TGI in experiment [9], in experiment [2], in experiment [3], in [5], in [6] and in experiment [7] was greater than 100 µM in each case. Further, the TGI in [8] is greater than 100 µM.

For the compound `COC1C(=O)CCC2(CO2)C1(O)C1(C)OC1CC=C(C)C` (configuration not stated), the TGI in experiment [1], in [10], in experiment [2], in experiment [3], in experiment [5] and in experiment [6] was greater than 100 µM in each case. Also, the TGI in experiment [8] was greater than 100 µM.
